Key:
RS4-11 cells = assay: Cell viability assay (CellTiter-Glo), RS4-11; type: cell-based; details: Homo sapiens, 72 h, 3 days, read-out: RS4-11 (CC50 code)
Method: (§1) Culture medium for HEK293—DMEM (PanEco, Cat #C420) was used. RPMI-1640 (PanEco, Cat #C363) was used for the rest of the cell lines.
(§2) Compounds were prepared as 200× stocks with serial dilution in 100% DMSO with a final concentration of 1×.
(§3) […] were dispersed in 40 μL aliquots in 384-well plates at a concentration of 2000 cells per well for HEK293 and at a concentration of 4000 cells per well for the rest of the cell lines using a robotic station Biomek (Beckman). Before adding compounds, the cells were incubated at 37° C. (HEK293 were incubated for a day before adding compounds).
(§4) A dilution plate was prepared by pouring 78 μL of the appropriate culture medium using a robotic station Biomek (Beckman). Sequentially, using a robotic station, 2 μL of substances were taken and added to 78 μL of culture medium (dilution of compounds 40×). 10 μL aliquots were taken and added to the plates of the cells (dilution of compounds 5×). The plates were incubated for 3 days at a temperature 37° C. After 3 days, 10 μL of CellTiter-Glo (Promega) was added to the cells and the luminescence was measured.

MOLT-4 cells = assay: Cell viability assay (CellTiter-Glo), MOLT-4; type: cell-based; details: Homo sapiens, 72 h, 3 days, read-out: MOLT-4 (CC50 code)
Method: as §1, §2, §3, §4

[1] = Cell viability assay (CellTiter-Glo), HEK293; type: cell-based; details: human, HEK293 cells, read-out: HEK293 (CC50 code)
Method: as §1, §2, §3, §4

[2] = tested on: caspase-3 and -7 activities in RS4-11 cells; assay: Caspase-3/7 activation (Caspase-Glo 3/7) in RS4-11 cells; type: cell-based; details: Homo sapiens, 3.5 h incubation, read-out: Cas-3/7 (EC50 code)
Method: The Caspase-Glo 3/7 Assay is homogeneous, luminescent assay that measures caspase-3 and -7 activities. The assay provides a luminogenic caspase-3/7 substrate, which contains the tetrapeptide sequence DEVD, in a reagent optimized for caspase activity.
Incubate RS4-11 cells with varying concentrations of test compounds for 3.5 h in a humidified incubator at 37° C. and 5% CO2 and 30 min at r.t. Add 15 μl Caspase-Glo reagent to each well and incubate the plate for 30 min at r.t. Read on ClarioStar Plus instrument.
Promega Caspase-Glo (Promega, #8212); Frozen RS4-11 cells; 384-well white plate (Corning, #3570).
ClarioStar Plus; Biomek FX for liquid handling (Beckman Coulter).

BCL-2 = BCL-2 (Homo sapiens (Human), UniProt P10415); assay: BCL-2 TR-FRET Assay (primary PPI inhibition); type: binding; details: 60 min incubation; read-out: BCL2 (IC50 code, BCL-2 TR-FRET)
Method: BCL-2 TR-FRET Assay (BPS Bioscience, #50222)
(§5) The following assay concentrations and times were used: 3 ng BCL-2, 5 μl of 1:100 anti-His Tb-labeled donor, 5 μl of 1:100 Dye-labeled acceptor, 5 μl of 1:40 BCL-2 Peptide Ligand, and 2 ul of test compound, with 60 min incubation time. The results of the assay were read using a Clariostar (BMG Labtech) plate reader with the following parameters: TR FRET, 340ex/620 and 665em; 60 μsec Delay; and 500 μsec integration.

BCL-XL = BCL-XL (Homo sapiens (Human), UniProt Q07817); assay: BCL-XL TR-FRET Assay (primary PPI inhibition); type: binding; details: 60 min incubation; read-out: BCLxL (IC50 code, BCL-XL TR-FRET)
Method: BCL-XL TR-FRET Assay (BPS Bioscience, #50223)
as §5, with “used: 10.5” for “used: 3”, “ng BCL-XL,” for “ng BCL-2,”, “of 1:80 BCL-XL” for “of 1:40 BCL-2”, “2 μl” for “2 ul”

Sequence of BCL-2 (P10415 whole entry): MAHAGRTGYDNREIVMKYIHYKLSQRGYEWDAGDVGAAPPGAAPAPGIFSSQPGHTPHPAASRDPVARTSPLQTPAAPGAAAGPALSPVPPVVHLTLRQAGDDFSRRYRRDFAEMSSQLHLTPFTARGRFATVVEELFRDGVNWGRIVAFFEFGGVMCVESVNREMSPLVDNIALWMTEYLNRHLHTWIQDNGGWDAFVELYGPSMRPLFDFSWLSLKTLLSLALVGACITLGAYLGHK
Sequence of BCL-XL (Q07817 whole entry): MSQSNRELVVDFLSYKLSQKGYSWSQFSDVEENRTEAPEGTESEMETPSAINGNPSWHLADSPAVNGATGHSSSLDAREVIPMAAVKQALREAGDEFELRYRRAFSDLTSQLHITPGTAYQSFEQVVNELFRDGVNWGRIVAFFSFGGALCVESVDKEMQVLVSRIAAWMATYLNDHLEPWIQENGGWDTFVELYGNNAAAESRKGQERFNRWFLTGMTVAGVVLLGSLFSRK

SMILES | CC50 (RS4-11 cells) [nM] | CC50 (MOLT-4 cells) [nM] | CC50 at 3 days [1] [nM] | EC50 [2] [nM] | IC50 (BCL-2) [nM] | IC50 (BCL-XL) [nM]
O=C(c1cc(-c2cc3c(cc2C(=O)N2Cc4ccccc4C[C@H]2CN2CCOCC2)OCO3)n2c1CCCC2)N(Cc1ccccc1F)c1ccc(O)cc1 [Compound 11, N-(2-fluorobenzyl)-N-(4-hydroxyphenyl)-3-(6-{[(3S)-3-(morpholin-4-ylmethyl)-3,4-dihydroisoquinolin-2(1H)-yl]carbonyl}-1,3-benzodioxol-5-yl)-5,6,7,8-tetrahydroindolizine-1-carboxamide] | ≤ 100 | > 10000 | 10000 to 25000 | ≤ 100 | – | –
O=C(c1cc(-c2cc3c(cc2C(=O)N2Cc4ccccc4C[C@H]2CN2CCOCC2)OCO3)n2c1CCCC2)N(Cc1ccc(F)cc1)c1ccc(O)cc1 [Compound 17, N-(4-fluorobenzyl)-N-(4-hydroxyphenyl)-3-(6-{[(3S)-3-(morpholin-4-ylmethyl)-3,4-dihydroisoquinolin-2(1H)-yl]carbonyl}-1,3-benzodioxol-5-yl)-5,6,7,8-tetrahydroindolizine-1-carboxamide] | > 200 | > 10000 | > 25000 | > 250 | 10 to 50 | –
Cc1cc(C(F)(F)F)ccc1CN(C(=O)c1cc(-c2cc3c(cc2C(=O)N2Cc4ccccc4C[C@H]2CN2CCOCC2)OCO3)n2c1CCCC2)c1ccc(O)cc1 [Compound 37, N-(4-hydroxyphenyl)-N-[2-methyl-4-(trifluoromethyl)benzyl]-3-(6-{[(3S)-3-(morpholin-4-ylmethyl)-3,4-dihydroisoquinolin-2(1H)-yl]carbonyl}-1,3-benzodioxol-5-yl)-5,6,7,8-tetrahydroindolizine-1-carboxamide] | ≤ 100 | 2000 to 10000 | > 25000 | 100 to 250 | 5 to 10 | –
O=C(c1cc(-c2cc3c(cc2C(=O)N2Cc4ccccc4C[C@H]2CN2CCOCC2)OCO3)n2c1CCCC2)N(Cc1cccnc1)c1ccc(O)cc1 [Compound 39, N-(4-hydroxyphenyl)-3-(6-{[(3S)-3-(morpholin-4-ylmethyl)-3,4-dihydroisoquinolin-2(1H)-yl]carbonyl}-1,3-benzodioxol-5-yl)-N-(pyridin-3-ylmethyl)-5,6,7,8-tetrahydroindolizine-1-carboxamide] | > 200 | ≤ 2000 | 10000 to 25000 | – | 5 to 10 | 2000 to 4000
CS(=O)(=O)NC(=O)c1cccc(CN(C(=O)c2cc(-c3cc4c(cc3C(=O)N3Cc5ccccc5C[C@H]3CN3CCOCC3)OCO4)n3c2CCCC3)c2ccc(O)cc2)c1 [Compound 43, N-(4-hydroxyphenyl)-N-{3-[(methylsulfonyl)carbamoyl]benzyl}-3-(6-{[(3S)-3-(morpholin-4-ylmethyl)-3,4-dihydroisoquinolin-2(1H)-yl]carbonyl}-1,3-benzodioxol-5-yl)-5,6,7,8-tetrahydroindolizine-1-carboxamide] | – | – | – | – | 5 to 10 | 2000 to 4000
O=C(O)c1cccc(CN(C(=O)c2cc(-c3cc4c(cc3C(=O)N3Cc5ccccc5C[C@H]3CN3CCOCC3)OCO4)n3c2CCCC3)c2ccc(O)cc2)c1 [Compound 45, 3-[(4-Hydroxy-N-[3-[6-[(3S)-3-(morpholinomethyl)-3,4-dihydro-1H-isoquinoline-2-carbonyl]-1,3-benzodioxol-5-yl]-5,6,7,8-tetrahydroindolizine-1-carbonyl]anilino)methyl]benzoic Acid] | > 200 | > 10000 | > 25000 | – | 10 to 50 | 2000 to 4000
O=C(c1cc(-c2cc3c(cc2C(=O)N2Cc4ccccc4C[C@H]2CN2CCOCC2)OCO3)n2c1CCCC2)N(Cc1cccc([N+](=O)[O-])c1)c1ccc(O)cc1 [Compound 49, N-(4-Hydroxyphenyl)-3-[6-[(3S)-3-(morpholinomethyl)-3,4-dihydro-1H-isoquinoline-2-carbonyl]-1,3-benzodioxol-5-yl]-N-[(3-nitrophenyl)methyl]-5,6,7,8-tetrahydroindolizine-1-carboxamide] | > 200 | > 10000 | > 25000 | – | > 50 | > 4000

From patent US11697650B2, “Compounds having tetrahydroindolizine-1-carboxamide as BCL-2 inhibitors” (Eil Therapeutics, Inc., priority 2021, dated 2023)
